Values quoted from earlier work in patent publication US20200392071A1, “Gene cluster for the biosynthetic production of tetracycline compounds in a heterologous host” (HELMHOLTZ-ZENTRUM FÜR INFEKTIONSFORSCHUNG GMBH, priority 2017, published 2020).

Key:
[1] = tested on: tetracycline-resistant pathogens; details: Proctor et al. 1978
Gram-negative pathogens = details: patients with urinary tract infections caused by Gram-negative pathogens; Molnar et al. 1977

CC(=O)C1=C(O)C(N)C2Cc3c(c(O)c4c(O)c(C)ccc4c3C)C(=O)C2(O)C1=O (centres unmarked) [chelocardin, Chelocardin]
activity against tetracycline-resistant pathogens [1]: active | outcome in a small phase II clinical study (Gram-negative pathogens): promising
